Measurements published in ChEMBL document CHEMBL3045101, “Hypoglycemic effect of astaxanthin from shrimp waste in alloxan-induced diabetic mice” (2012).
The source made the active and inactive calls. The rule behind the calls is not given here.

Key:
Mus musculus [1] = test: Hypoglycemic activity in Mus musculus Kunming (mouse) assessed as reduction of AUC of plasma glucose level at 5 to 10 mg/kg, po qd for 7 days by oral glucose tolerance test; type: functional, organism-based
Mus musculus [2] = test: Hypoglycemic activity in Mus musculus Kunming (mouse) assessed as reduction of 16 hr fasting plasma glucose level at 5 mg/kg, po qd for 7 days by oral glucose tolerance test (reference value: 6.20 +/- 0.63 mmol/l); type: functional
Mus musculus [3] = test: Hypoglycemic activity in Mus musculus Kunming (mouse) assessed as reduction of 16 hr fasting plasma glucose level at 10 mg/kg, po qd for 7 days by oral glucose tolerance test (reference value: 6.20 +/- 0.63 mmol/l); type: functional
Mus musculus [4] = test: Antidiabetic activity in Mus musculus Kunming (mouse) alloxan-induced diabetic model assessed as reduction of 16 hr fasting plasma glucose level at 10 mg/kg, po qd for 7 days (reference value: 6.11 +/- 0.64 mmol/l); type: functional
Mus musculus [5] = test: Antidiabetic activity in Mus musculus Kunming (mouse) alloxan-induced diabetic model assessed as reduction of 16 hr fasting plasma glucose level at 5 mg/kg, po qd for 7 days (reference value: 6.11 +/- 0.64 mmol/l); type: functional
Mus musculus [6] = test: Hypoglycemic activity in Mus musculus Kunming (mouse) assessed as reduction of 16 hr fasting plasma glucose level at 2.4 mg/kg, po qd for 7 days by oral glucose tolerance test (reference value: 6.20 +/- 0.63 mmol/l); type: functional

Structure (SMILES)	Activity (Mus musculus [1])	Activity (Mus musculus [2]) [mmol/L]	Activity (Mus musculus [3]) [mmol/L]	Activity (Mus musculus [4]) [mmol/L]	Activity (Mus musculus [5]) [mmol/L]	Activity (Mus musculus [6]) [mmol/L]
CC1=C(/C=C/C(C)=C/C=C/C(C)=C/C=C/C=C(C)/C=C/C=C(C)/C=C/C2=C(C)C(=O)[C@@H](O)CC2(C)C)C(C)(C)C[C@H](O)C1=O [ASTAXANTHIN]	Active	6.14	6.02	10.11	13.03	–
Cc1ccc(S(=O)(=O)NC(=O)NN2CC3CCCC3C2)cc1 (configuration not stated) [GLICLAZIDE]	–	–	–	–	–	4.69
CN(C)C(=N)NC(=N)N [METFORMIN]	–	–	–	9.98	–	–
